Results: US10723741B1, “DNA polymerase IIIC inhibitors and use thereof” (Acurx Pharmaceuticals, LLC, priority 2018, dated 2020)
Converted amounts (≈) assume the structure as drawn. Where two headings read alike, the source gives them in different places.

What was measured:
Assay type in all cases: cell-based
[1] = tested on: Staphylococcus aureus ATCC 29213 (MSSA); experiment: Broth microdilution MIC, S. aureus ATCC 29213 (MSSA); settings: broth microdilution, 37° C., 20 hours, read-out: MIC S. aureus ATCC 29213 (MSSA)
In short: (§1)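 Two-fold dilutions from 64 to 0.0625 μg/ml final, 1% DMSO, were inoculated at ~5.0×10^5 cfu/ml in the strain's test medium and kept 20 h at 37 °C in ambient atmosphere. Colonies were grown on MHA, with S. pneumoniae on blood agar under 5% CO2.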

[2] = tested on: Enterococcus faecalis ATCC 29212; experiment: Broth microdilution MIC, E. faecalis ATCC 29212; settings: ATCC29212, broth microdilution, 37° C., 20 hours, read-out: MIC E. faecalis ATCC 29212
In short: as §1

[3] = tested on: Bacillus subtilis ATCC 6633; experiment: Broth microdilution MIC, B. subtilis ATCC 6633; settings: ATCC6633, broth microdilution, 37° C., 20 hours, read-out: MIC B. subtilis ATCC 6633
In short: as §1

[4] = tested on: Enterococcus faecium ATCC 700221 (VRE); experiment: Broth microdilution MIC, E. faecium ATCC 700221 (VRE); set-up: MIC E. faecium ATCC 700221 (VRE): unit: ug/mL; settings: broth microdilution, 37° C., 20 hours; for MIC: Enterococcus faecium, read-out: MIC E. faecium ATCC 700221 (VRE)
In short: as §1

[5] = tested on: Streptococcus pneumoniae ATCC 49619; experiment: Broth microdilution MIC, S. pneumoniae ATCC 49619; settings: ATCC49619, broth microdilution, 37° C., 20 hours, read-out: MIC S. pneumoniae ATCC 49619
In short: as §1

[6] = tested on: Escherichia coli ATCC 25922; experiment: Broth microdilution MIC, E. coli ATCC 25922 (MHIIB w & w/o 4 mM EDTA); settings: broth microdilution, 37° C., 20 hours; for MIC: Escherichia coli, ATCC25922, without EDTA, read-out: MIC E. coli ATCC 25922; for MIC E. coli ATCC 25922 + 4 mM EDTA: with 4 mM EDTA
In short: as §1

[7] = tested on: Staphylococcus aureus NRS384 (MRSA); experiment: Broth microdilution MIC, S. aureus NRS384 (MRSA); set-up: MIC NRS 384 (MRSA): unit not given here; settings: broth microdilution, 37° C., 20 hours; for MIC: Staphylococcus aureus, read-out: MIC NRS 384 (MRSA)
In short: as §1

| Compound | MIC [1] [µg/mL] | MIC [2] [µg/mL] | MIC [3] [µg/mL] | MIC E. faecium ATCC 700221 (VRE) [4] | MIC [5] [µg/mL] | MIC [6] [µg/mL] | MIC E. coli ATCC 25922 + 4 mM EDTA [6] | MIC NRS 384 (MRSA) [7] | MIC [4] [µg/mL] | MIC [7] [µg/mL] | MIC ([7]; S. aureus NRS 384) [µg/mL] |
| --- | --- | --- | --- | --- | --- | --- | --- | --- | --- | --- | --- |
| O=c1[nH]c(NCc2ccc(Cl)c(Cl)c2)nc2cnn(Cc3cocn3)c12 [Compound 92, 5-((3,4-Dichlorobenzyl)amino)-1-(oxazol-4-ylmethyl)-1H-pyrazolo[4,3-d]pyrimidin-7(6H)-one] | 4 (≈ 10.2 µM) | 4 (≈ 10.2 µM) | 2 (≈ 5.11 µM) |  | 4 (≈ 10.2 µM) | > 64 | 8 µg/mL |  | 2 (≈ 5.11 µM) | 4 (≈ 10.2 µM) |  |
| Cn1ncc2nc(NCc3cc[nH]n3)[nH]c(=O)c21 [Compound 16, 5-(((1H-pyrazol-3-yl)methyl)amino)-1-methyl-1H-pyrazolo[4,3-d]pyrimidin-7(6H)-one] | > 64 | > 64 | > 64 |  | > 64 | > 64 | >64 µg/mL |  | > 64 | > 64 |  |
| O=C1CCCN1CCn1ncc2nc(NCc3ccc(Cl)c(Cl)c3)[nH]c(=O)c21 [Compound 94, 5-((3,4-Dichlorobenzyl)amino)-1-(2-(2-oxopyrrolidin-1-yl)ethyl)-1H-pyrazolo[4,3-d]pyrimidin-7(6H)-one] | 16 (≈ 38 µM) | 16 (≈ 38 µM) | 8 (≈ 19 µM) |  | 4 (≈ 9.49 µM) | > 64 | >64 µg/mL |  | 4 (≈ 9.49 µM) | 16 (≈ 38 µM) |  |
| O=c1[nH]c(NCc2ccc(Cl)c(Cl)c2)nc2cnn(CCc3ncccn3)c12 [Compound 117, 5-((3,4-Dichlorobenzyl)amino)-1-(2-(pyrimidin-2-yl)ethyl)-1H-pyrazolo[4,3-d]pyrimidin-7(6H)-one] | 8 (≈ 19.2 µM) | 8 (≈ 19.2 µM) | 2 (≈ 4.8 µM) |  | 4 (≈ 9.61 µM) | > 64 | >64 µg/mL |  | 4 (≈ 9.61 µM) | 8 (≈ 19.2 µM) |  |
| Cn1ncc2nc(NCc3ccc4[nH]cnc4c3)[nH]c(=O)c21 [Compound 19, 5-(((1H-benzo[d]imidazol-5-yl)methyl)amino)-1-methyl-1H-pyrazolo[4,3-d]pyrimidin-7(6H)-one] | > 64 | > 64 | > 64 |  | > 64 | > 64 | >64 µg/mL |  | > 64 | > 64 |  |
| Cn1ncc2nc(NCc3cccnc3)[nH]c(=O)c21 [Compound 5, 1-Methyl-5-(3-pyridylmethylamino)-6H-pyrazolo[4,3-d]pyrimidin-7-one] | > 64 | > 64 | > 64 |  | > 64 | > 64 | >64 µg/mL |  | > 64 | > 64 |  |
| COCCCCCn1cc2nc(NCc3ccc(Cl)c(Cl)c3)[nH]c(=O)c2n1 [Compound 133, 5-((3,4-Dichlorobenzyl)amino)-2-(5-methoxypentyl)-2H-pyrazolo[4,3-d]pyrimidin-7(6H)-one] | > 64 | > 64 | 8 (≈ 19.5 µM) |  | 16 (≈ 39 µM) | > 64 | >64 µg/mL |  | 64 (≈ 156 µM) | > 64 |  |
| Cn1ncc2nc(NCc3ccc(Cl)cc3Cl)[nH]c(=O)c21 [Compound 28, 5-((2,4-Dichlorobenzyl)amino)-1-methyl-1H-pyrazolo[4,3-d]pyrimidin-7(6H)-one] | > 64 | > 64 | 64 (≈ 197 µM) |  | 64 (≈ 197 µM) | > 64 | 64 µg/mL |  | 16 (≈ 49.4 µM) | > 64 |  |

Further lines, results first:

| MIC [1] [µg/mL] | MIC [2] [µg/mL] | MIC [3] [µg/mL] | MIC E. faecium ATCC 700221 (VRE) [4] | MIC [5] [µg/mL] | MIC [6] [µg/mL] | MIC E. coli ATCC 25922 + 4 mM EDTA [6] | MIC NRS 384 (MRSA) [7] | MIC [4] [µg/mL] | MIC [7] [µg/mL] | MIC ([7]; S. aureus NRS 384) [µg/mL] | Compound |
| --- | --- | --- | --- | --- | --- | --- | --- | --- | --- | --- | --- |
| 4 (≈ 9.38 µM) | 8 (≈ 18.8 µM) | 2 (≈ 4.69 µM) | 4/4 | 16 (≈ 37.5 µM) | > 64 | >64 µg/mL | 4/4 |  |  |  | COC(=O)COCCn1ncc2nc(NCc3ccc(Cl)c(Cl)c3)[nH]c(=O)c21 [Compound 287, methyl 2-(2-(5-((3,4-dichlorobenzyl)amino)-7-oxo-6,7-dihydro-1H-pyrazolo[4,3-d]pyrimidin-1-yl)ethoxy)acetate] |
| 2 (≈ 4.62 µM) | 2 (≈ 4.62 µM) | 0.5 (≈ 1.16 µM) |  | 2 (≈ 4.62 µM) | > 64 | >64 µg/mL |  | 1 (≈ 2.31 µM) |  | 2 (≈ 4.62 µM) | O=c1[nH]c(NCc2ccc(Cl)c(Cl)c2)nc2c(Cl)nn(CCOCCO)c12 [Compound 303, 3-Chloro-5-[(3,4-dichlorophenyl)methylamino]-1-[2-(2-hydroxyethoxy)ethyl]-6H-pyrazolo[4,3-d]pyrimidin-7-one] |
| 16 (≈ 40.7 µM) | 16 (≈ 40.7 µM) | 4 (≈ 10.2 µM) |  | 2 (≈ 5.09 µM) | > 64 | 32 µg/mL |  | 8 (≈ 20.3 µM) | 16 (≈ 40.7 µM) |  | O=c1[nH]c(NCc2ccc(Cl)c(Cl)c2)nc2cnn(C3CCNCC3)c12 [Compound 152, 5-((3,4-dichlorobenzyl)amino)-1-(piperidin-4-yl)-1H-pyrazolo[4,3-d]pyrimidin-7(6H)-one] |
| 64 (≈ 142 µM) | 32 (≈ 70.9 µM) | 16 (≈ 35.5 µM) |  | 4 (≈ 8.86 µM) | > 64 | >64 µg/mL |  | 16 (≈ 35.5 µM) | 64 (≈ 142 µM) |  | O=C1CC(Cn2ncc3nc(NCc4ccc(Cl)c(Cl)c4)[nH]c(=O)c32)CN1CCO (centres unmarked) [Compound 177, 5-((3,4-dichlorobenzyl)amino)-1-((1-(2-hydroxyethyl)-5-oxopyrrolidin-3-yl)methyl)-1H-pyrazolo[4,3-d]pyrimidin-7(6H)-one] |
| 4 | 4 | 1 | 4/1 | 8 | > 64 | >64. ug/ml | 2/2 |  |  |  | Cl.O=c1[nH]c(NCc2ccc(Cl)c(Cl)c2)nc2cnn(CCOc3cccnc3)c12 [Compound 170, 5-((3,4-dichlorobenzyl)amino)-1-(2-(pyridin-3-yloxy)ethyl)-1H-pyrazolo[4,3-d]pyrimidin-7(6H)-one hydrochloride] |
| > 64 | > 64 | > 64 |  | > 64 | > 64 | >64 µg/mL |  | > 64 | > 64 |  | Cl.O=C(O)C1(Cn2ncc3nc(NCc4ccc(Cl)c(Cl)c4)[nH]c(=O)c32)CCNCC1 [Compound 196, 4-((5-((3,4-dichlorobenzyl)amino)-7-oxo-6,7-dihydro-1H-pyrazolo[4,3-d]pyrimidin-1-yl)methyl)piperidine-4-carboxylic acid hydrochloride] |
| > 64 | 64 (≈ 140 µM) | 64 (≈ 140 µM) |  | > 64 | > 64 | >64 µg/mL |  | 64 (≈ 140 µM) | > 64 |  | O=C(O)COCCOCCn1ncc2nc(NCc3ccc(Cl)c(Cl)c3)[nH]c(=O)c21 [Compound 187, 2-(2-(2-(5-((3,4-dichlorobenzyl)amino)-7-oxo-6,7-dihydro-1H-pyrazolo[4,3-d]pyrimidin-1-yl)ethoxy)ethoxy)acetic acid] |
| 2 (≈ 4.1 µM) | 4 (≈ 8.19 µM) | 1 (≈ 2.05 µM) |  | 2 (≈ 4.1 µM) | > 64 | >64 µg/mL |  | 2 (≈ 4.1 µM) | 2 (≈ 4.1 µM) |  | O=C(c1cocn1)N1CCC(n2ncc3nc(NCc4ccc(Cl)c(Cl)c4)[nH]c(=O)c32)CC1 [Compound 253, 5-[(3,4-Dichlorophenyl)methylamino]-1-[1-(oxazole-4-carbonyl)-4-piperidyl]-6H-pyrazolo[4,3-d]pyrimidin-7-one] |
